In patent publication US8895585B2, “Nicotinamide derivative or salt thereof” (FUJIFILM Corporation, priority 2010, dated 2014):

Biological target: T1, glutathione S-transferase (GST)-fused full-length human Syk protein (Homo sapiens, UniProt P43405)
T1 construct: (GST)-fused full-length human Syk protein; GST (glutathione S-transferase); purchased Carna Biosciences
Experiment: Syk enzyme assay
Assay type: biochemical
Details: Syk enzyme assay, Test Example 1; read-out: IC50 of Syk-inhibitory activity
Summary of the method: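 GST-tagged full-length human Syk (baculovirus) preincubated with compound 15 min at room temperature (pH 7.0, 10 mM MgCl2), then reacted 40 min with 0.4 μM biotinylated peptide substrate and 27 μM ATP (final). Phosphorylation read by HTRF (615/665 nm) after EDTA stop; IC50 reported.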

Structure (SMILES) | IC50
CC(C)(C)[C@H](CN)Nc1nc(Nc2ccc3ncccc3c2)c(C(N)=O)cc1F [Example 006-162, (R)-6-((1-amino-3,3-dimethylbutan-2-yl)amino)-5-fluoro-2-(quinolin-6-ylamino)nicotinamide] | 50 to 100 nM
CC[C@H](Nc1nc(Nc2ccc3ncccc3c2)c(C(N)=O)cc1F)[C@H](C)N [Example 006-179, 6-(((2S,3S)-2-aminopentan-3-yl)amino)-5-fluoro-2-((quinolin-6-yl)amino)nicotinamide] | 50 to 100 nM
C[C@H](N)[C@H](C)Nc1nc(Nc2ccc3ncccc3c2)c(C(N)=O)cc1F [Example 006-181, 6-(((2S,3S)-3-aminobutan-2-yl)amino)-5-fluoro-2-((quinolin-6-yl)amino)nicotinamide] | 100 to 1000 nM
C[C@H](N)[C@H](C)Nc1nc(Nc2ccc3ncccc3c2)c(C(N)=O)cc1F [Example 006-202, 6-(((2S,3S)-3-aminobutan-2-yl)amino)-5-fluoro-2-((quinolin-6-yl)amino)nicotinamide] | 50 to 100 nM
CC(C)C[C@@H](CN)Nc1nc(Nc2ccc3ncccc3c2)c(C(N)=O)cc1F [Example 006-203, (S)-6-((1-amino-4-methylpentan-2-yl)amino)-5-fluoro-2-((quinolin-6-yl)amino)nicotinamide] | 100 to 1000 nM
CC(C)C[C@H](CN)Nc1nc(Nc2cncc(-c3ccccc3)c2)c(C(N)=O)cc1F [Example 006-235, (R)-6-((1-amino-4-methylpentan-2-yl)amino)-5-fluoro-2-((5-phenylpyridin-3-yl)amino)nicotinamide] | 10 to 50 nM
CCC[C@@H](Nc1nc(Nc2cccc3cccnc23)c(C(N)=O)cc1F)[C@H](C)N [Example 006-243, 6-(((2S,3R)-2-aminohexan-3-yl)amino)-5-fluoro-2-((quinolin-8-yl)amino)nicotinamide] | 10 to 50 nM
CCC[C@@H](Nc1nc(Nc2ccc(N3CCOCC3)nc2)c(C(N)=O)cc1F)[C@H](C)N [Example 006-246, 6-(((2S,3R)-2-aminohexan-3-yl)amino)-5-fluoro-2-((6-mopholinopyridin-3-yl)amino)nicotinamide] | 10 to 50 nM
CC[C@@H](Nc1nc(Nc2ccnc(-n3nccn3)c2)c(C(N)=O)cc1F)[C@H](C)N [Example 006-254, 2-((2-(2H-1,2,3-triazol-2-yl)pyridin-4-yl)amino)-6-(((2S,3R)-2-aminopentan-3-yl)amino)-5-fluoronicotinamide] | 10 to 50 nM
CC[C@@H](Nc1nc(Nc2cnc(OC)c(-n3nccn3)c2)c(C(N)=O)cc1F)[C@H](C)N [Example 006-273, 6-(((2S,3R)-2-aminopentan-3-yl)amino)-5-fluoro-2-((6-methoxy-5-(2H-1,2,3-triazol-2-yl)pyridin-3-yl)amino)nicotinamide] | 100 to 1000 nM
NC[C@@H](CC1CC1)Nc1nc(Nc2cncc(-c3ccccc3)c2)c(C(N)=O)cc1F [Example 006-283, (R)-6-((1-amino-3-cyclopropylpropan-2-yl)amino)-5-fluoro-2-((5-phenylpyridin-3-yl)amino)nicotinamide] | 10 to 50 nM
NCC(CCC(F)(F)F)Nc1nc(Nc2cncc(-c3ccccc3)c2)c(C(N)=O)cc1F (centres unmarked) [Example 006-305, 6-((1-amino-5,5,5-trifluoropentan-2-yl)amino)-5-fluoro-2-((5-phenylpyridin-3-yl)amino)nicotinamide] | 10 to 50 nM
COc1ccc(-c2cncc(Nc3nc(N[C@@H](CN)CC(C)C)c(F)cc3C(N)=O)c2)c(F)c1 [Example 006-319, (R)-6-((1-amino-4-methylpentan-2-yl)amino)-5-fluoro-2-((5-(2-fluoro-4-methoxyphenyl)pyridin-3-yl)amino)nicotinamide] | 10 to 50 nM
COc1ccc(F)c(-c2cncc(Nc3nc(N[C@@H](CN)CC(C)C)c(F)cc3C(N)=O)c2)c1 [Example 006-320, (R)-6-((1-amino-4-methylpentan-2-yl)amino)-5-fluoro-2-((5-(2-fluoro-5-methoxyphenyl)pyridin-3-yl)amino)nicotinamide] | 50 to 100 nM
NC[C@H](Nc1nc(Nc2cncc(-c3ccccc3)c2)c(C(N)=O)cc1F)C1CC1 [Example 006-337, (R)-6-((2-amino-1-cyclopropylethyl)amino)-5-fluoro-2-((5-phenylpyridin-3-yl)amino)nicotinamide] | 10 to 50 nM
CCCC[C@H](CN)Nc1nc(Nc2cccc3c2cnn3C)c(C(N)=O)cc1F [Example 006-339, (R)-6-((1-aminohexan-2-yl)amino)-5-fluoro-2-((1-methyl-1H-indazol-4-yl)amino)nicotinamide] | 10 to 50 nM
CCCC[C@H](CN)Nc1nc(Nc2cnc(C)c(C)c2)c(C(N)=O)cc1F [Example 006-341, (R)-6-((1-aminohexane-2-yl)amino)-2-((5,6-dimethylpyridin-3-yl)amino)-5-fluoronicotinamide] | 10 to 50 nM
C[C@H](N)[C@@H](CC1CC1)Nc1nc(Nc2ccc3nccnc3c2)c(C(N)=O)cc1F [Example 006-347, 6-(((2R,3S)-3-amino-1-cyclopropylbutan-2-yl)amino)-5-fluoro-2-((quinoxalin-6-yl)amino)nicotinamide] | 10 to 50 nM
CC[C@H](N)[C@@H](CC)Nc1nc(Nc2ccc3cnn(C)c3c2)c(C(N)=O)cc1F [Example 006-366, 6-(((3R,4S)-4-aminohexan-3-yl)amino)-5-fluoro-2-((1-methyl-1H-indazol-6-yl)amino)nicotinamide] | 50 to 100 nM

Now from value to compound:

IC50 | Structure (SMILES)
10 to 50 nM | CC(C)C(Nc1nc(Nc2ccc3ncccc3c2)c(C(N)=O)cc1F)[C@H](C)N (stereo partly drawn) [Example 006-158, 6-(((2S)-2-amino-4-methylpentan-3-yl)amino)-5-fluoro-2-(quinolin-6-ylamino)nicotinamide]
< 10 nM | NCC1(Nc2nc(Nc3ccc4ncccc4c3)c(C(N)=O)cc2F)CC1 [Example 006-171, 6-((1-(aminomethyl)cyclopropyl)amino)-5-fluoro-2-((quinolin-6-yl)amino)nicotinamide]
10 to 50 nM | NC(=O)c1cc(F)c(NC2CCCC2N)nc1Nc1ccc2ncccc2c1 (stereo not drawn) [Example 006-175, 6-((cis-2-aminocyclopentyl)amino)-5-fluoro-2-(quinolin-6-yl)amino)nicotinamide]
10 to 50 nM | CC(C)C[C@H](CN)Nc1nc(Nc2ccc(N3CCOCC3)nc2)c(C(N)=O)cc1F [Example 006-191, (R)-6-((1-amino-4-methylpentan-2-yl)amino)-5-fluoro-2-((6-morpholinopyridin-3-yl)amino)nicotinamide]
< 10 nM | CCCC[C@@H](Nc1nc(Nc2cnc3cc(OC)ccc3c2)c(C(N)=O)cc1F)[C@H](C)N [Example 006-205, 6-(((2S,3R)-2-aminoheptan-3-yl)amino)-5-fluoro-2-((7-methoxyquinolin-3-yl)amino)nicotinamide]
10 to 50 nM | C[C@H](Nc1nc(Nc2ccc3ncccc3c2)c(C(N)=O)cc1F)[C@@H](C)N [Example 006-225, 6-(((2S,3R)-3-aminobutan-2-yl)amino)-5-fluoro-2-((quinolin-6-yl)amino)nicotinamide]
10 to 50 nM | CC(C)C[C@H](CN)Nc1nc(Nc2cccc3cccnc23)c(C(N)=O)cc1F [Example 006-230, (R)-6-((1-amino-4-methylpentan-2-yl)amino)-5-fluoro-2-((quinolin-8-yl)amino)nicotinamide]
< 10 nM | CC(C)C[C@H](CN)Nc1nc(Nc2cncc3ccccc23)c(C(N)=O)cc1F [Example 006-231]
< 10 nM | CC[C@@H](Nc1nc(Nc2cncc(-c3cc(OC)ccc3F)c2)c(C(N)=O)cc1F)[C@H](C)N [Example 006-280, 6-(((2S,3R)-2-aminopentan-3-yl)amino)-5-fluoro-2-((5-(2-fluoro-5-methoxyphenyl)pyridin-3-yl)amino)nicotinamide]
< 10 nM | CCCC[C@H](CN)Nc1nc(Nc2ccc3c(cnn3C)c2)c(C(N)=O)cc1F [Example 006-292, (R)-6-((1-aminohexan-2-yl)amino)-5-fluoro-2-((1-methyl-1H-indazol-5-yl)amino)nicotinamide]
< 10 nM | COc1cccc(-c2cc(Nc3nc(N[C@@H](CN)CC(C)C)c(F)cc3C(N)=O)ccn2)c1 [Example 006-325, (R)-6-((1-amino-4-methylpentan-2-yl)amino)-5-fluoro-2-((2-(3-methoxyphenyl)pyridin-4-yl)amino)nicotinamide]
< 10 nM | COc1ccc(-c2cc(Nc3nc(N[C@@H](CN)CC(C)C)c(F)cc3C(N)=O)ccn2)cc1 [Example 006-326, (R)-6-((1-amino-4-methylpentan-2-yl)amino)-5-fluoro-2-((2-(4-methoxyphenyl)pyridin-4-yl)amino)nicotinamide]
< 10 nM | COc1cccc(-c2cc(Nc3nc(N[C@@H](CN)CC(C)C)c(F)cc3C(N)=O)ccn2)c1F [Example 006-327, (R)-6-((1-amino-4-methylpentan-2-yl)amino)-5-fluoro-2-((2-(2-fluoro-3-methoxyphenyl)pyridin-4-yl)amino)nicotinamide]
< 10 nM | COc1ccc(-c2cc(Nc3nc(N[C@@H](CN)CC(C)C)c(F)cc3C(N)=O)ccn2)c(F)c1 [Example 006-328, (R)-6-((1-amino-4-methylpentan-2-yl)amino)-5-fluoro-2-((2-(2-fluoro-4-methoxyphenyl)pyridin-4-yl)amino)nicotinamide]
< 10 nM | CCCC[C@H](CN)Nc1nc(Nc2cncc(C3CC3)c2)c(C(N)=O)cc1F [Example 006-340, (R)-6-((1-aminohexan-2-yl)amino)-2-((5-cyclopropylpyridin-3-yl)amino)-5-fluoronicotinamide]
< 10 nM | COc1cc(Nc2nc(N[C@H](CC3CC3)[C@H](C)N)c(F)cc2C(N)=O)cc(OC)n1 [Example 006-349, 6-(((2R,3S)-3-amino-1-cyclopropylbutan-2-yl)amino)-2-((2,6-dimethoxypyridin-4-yl)amino)-5-fluoronicotinamide]
